Reference: patent US12264175B2, “Compositions and methods for capping RNAS” (Verve Therapeutics, Inc., priority 2020, dated 2025)

Legend:
T7 RNA polymerase = T7 RNA polymerase (Escherichia phage T7, UniProt P00573); test: mRNA capping efficiency at adjusted 5′ end initiator-to-NTP molar ratio; format: biochemical; conditions: FIG. 4
Excerpt: The amount of capped mRNA produced in an IVT reaction is directly proportional to the ratio of cap to NTPs in the reaction mixture (Stepinski, J. et al., RNA. 2006, 7, 1486-1495). The 5′ end initiator-to-NTP ratio in an IVT reaction impacts the amount of mRNA that becomes capped primarily because cap can compete with NTPs for insertion at the 5′ end of mRNA. A typical initiator-to-NTP ratio for a dinucleotide cap structure is 4:1 and a typical molar initiator-to-NTP ratio for a trinucleotide cap structure is 1:1; where NTP represents either GTP, ATP, CTP, UTP, or modified NTPs such as N1-methyl pseudouridine. At both a 4:1 ratio for a dinucleotide cap and 1:1 ratio for a trinucleotide cap, the resultant mRNA will have a mixture of transcripts of which at least 80% are capped at the 5′ end and up to 20% are uncapped, this is also described as a capping efficiency of 80%. Capping efficiency is the measured amount of capped mRNA divided by the total amount of capped mRNA plus uncapped mRNA. Therefore, trinucleotide caps can be considered more efficient capping compounds than dinucleotide caps since less input cap is required to produce a final mRNA product that contains a similar amount of capped 5′ ends. The ability of trinucleotide caps to produce a high (>90%) capping efficiency at a lower initiator-to-NTP ratio than dinucleotide caps, in some instances, can be attributed to the increased affinity of a trinucleotide cap for the DNA template. In some cases, the optimal cap-to-NTP ratio may vary with the composition of the cap structure, wherein modification of cap structures may affect capping efficiency. […]
The amount of capped mRNA relative to the total amount of mRNA that is present, i.e. capping efficiency, can be measured by numerous methods well known in the art. […]

HeLa lysate = test: Translation of capped luciferase mRNA in HeLa lysate in vitro translation kit; format: biochemical; conditions: luciferase encoding mRNA with the 5′ end motif, luminescence, FIG. 5
Protocol: HeLa cells are cultured in RPMI with 10% FBS at 37° C. under 5% CO2 atmosphere. Cells are plated into an appropriately sized well plate per manufacturer's recommended seeding conditions. After overnight incubation, cells are checked for monolayer formation and then transfected using a transfection agent such as MessengerMAX. Solution A: the desired amount of luciferase mRNA is diluted in OptiMEM and mixed with Solution B: MessengerMAX in OptiMEM. After mixing solutions A and B, the mixture is incubated at room temperature for 20 minutes, and then added dropwise to each well of cells. The cells are then incubated at 37° C. for 12-72 hours to allow for expression of mRNA into protein. Cells are harvested and prepared for measuring luciferase protein levels per Promega luciferase assay system protocol. […] For example, luciferase encoding mRNA with 5′ end region motif, 1007a, was added to a commercially available HeLa lysate in vitro translation kit to produce luciferase protein. Luciferase protein activity as measured by luminescent light production in the presence of a luciferin substrate, was measured with a luminescence-detecting plate reader. Relative light units measured per this assay are proportional to the amount of luciferase protein translated from mRNA. […]

RIG-I = test: Immune stimulation of capped mRNA in HEK-Lucia RIG-I cell reporter model; format: cell-based
Protocol: LNPs are prepared and administered in vivo to mice as in Example 11(A,B). Blood is collected at appropriate time points, typically at intervals between 1-48 hours post-dose and terminal end point, and processed to serum or plasma per techniques well known in the art. Serum or plasma cytokine and chemokine levels are measured using V-PLEX cytokine and chemokine detection kits. Cytokine and chemokine levels are compared to animals treated with buffer alone as well as pre-dose sampling of the treatment animals. In some instances, the immune stimulation of capped mRNA is assessed after in vitro transfection to reporter cell lines such as HEK-Lucia RIG-I cell reporter model, which produces luciferase signal in the presence of IFN-stimulated response elements such as uncapped mRNA. This cell model is cultured and transfected as described in Example 7, and luciferase activity is measured using a luciferase activity kit and plate reader. It is known in the art that uncapped mRNA produces a RIG-I-dependent IFN immune response, and capped mRNA lessens this immune stimulation. […] The results of this example were compared using mRNA made with a commercially available 5′ end initiator, 1002a, as a reference.

Chain of T7 RNA polymerase (P00573 whole entry): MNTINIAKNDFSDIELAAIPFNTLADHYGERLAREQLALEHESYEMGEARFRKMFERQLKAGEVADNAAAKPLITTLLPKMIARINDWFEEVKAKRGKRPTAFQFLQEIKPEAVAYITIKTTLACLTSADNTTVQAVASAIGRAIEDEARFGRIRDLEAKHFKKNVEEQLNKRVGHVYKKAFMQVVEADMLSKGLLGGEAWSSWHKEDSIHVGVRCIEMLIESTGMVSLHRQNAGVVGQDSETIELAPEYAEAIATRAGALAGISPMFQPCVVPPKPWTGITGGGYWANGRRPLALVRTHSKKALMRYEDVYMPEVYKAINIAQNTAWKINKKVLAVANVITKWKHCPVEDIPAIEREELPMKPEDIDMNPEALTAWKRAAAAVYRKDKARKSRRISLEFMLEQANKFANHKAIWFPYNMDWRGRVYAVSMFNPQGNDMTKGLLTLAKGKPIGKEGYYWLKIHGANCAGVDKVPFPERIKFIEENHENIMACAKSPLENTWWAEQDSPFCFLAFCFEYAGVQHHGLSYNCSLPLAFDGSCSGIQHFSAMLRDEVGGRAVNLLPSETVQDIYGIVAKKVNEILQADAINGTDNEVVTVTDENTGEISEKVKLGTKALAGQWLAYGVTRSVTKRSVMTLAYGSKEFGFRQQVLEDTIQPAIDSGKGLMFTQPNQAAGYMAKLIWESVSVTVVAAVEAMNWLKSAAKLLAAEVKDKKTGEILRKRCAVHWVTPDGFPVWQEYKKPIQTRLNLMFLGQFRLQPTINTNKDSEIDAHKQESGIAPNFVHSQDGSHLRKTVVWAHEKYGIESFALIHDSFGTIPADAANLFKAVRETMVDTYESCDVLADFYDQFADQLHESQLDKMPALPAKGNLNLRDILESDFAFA

COC1C(OP([O-])(=S)OCC2OC(n3cnc4c(=O)[nH]c(N)nc43)C(O)C2O)C(COP(=O)(O)OP(=O)(O)OP(=O)(O)OCC2OC(n3c[n+](C)c4c(=O)[nH]c(N)nc43)C(O)C2O)OC1n1cnc2c(N)ncnc21 (centres unmarked) [1007a, m^7G(ppp)Am(ps)G]
capping efficiency (T7 RNA polymerase; initiator-to-NTP ratio ranging from 1:1 down to 1:2.5): > 90% | capping efficiency compared to mRNA capped with 1002a (T7 RNA polymerase; similar production conditions): similar | luciferase activity relative to mRNA with initiator 1002a (HeLa lysate): around 2 x | RIG-I activity as compared to uncapped mRNA (RIG-I; mRNA with the 5′ end motif, FIG. 8): reduced | RIG-I activation as a result of the chemical modifications to the cap structure (RIG-I; reference mRNA made with 1002a): did not appear to increase
